Test results taken from patent EP0399909A1, “Cosmetic composition against skin ageing” (ELF SANOFI, priority 1989, dated 1990).

Test system: fibroblastes de peau humaine (ATCC No CRL 1513)
Test: SAMe formation in cultured human skin fibroblasts with increasing betaine concentrations (HPLC determination)
Format: cell-based
Conditions: for Concentration de SAMe: 6 days culture, control without bétaïne 0,54
Method: L'effet exercé par la bétaïne sur la formation de SAMe a été mis en évidence par les résultats obtenus à des concentrations croissantes de bétaïne dans des fibroblastes de peau humaine (ATCC No CRL 1513) en culture. Plus précisément, les cellules (2.10⁴/ml) ont été mises en culture pendant 6 jours dans 250 ml de milieu de culture Dulbecco's Modified Eagle Medium (DMEM) contenant 20 % de sérum de veau foetal, en présence de concentrations croissantes (de 10⁻⁵ M à 5.10⁻⁴ M) de bétaïne. Au terme de la culture, les cellules ont été décollées à la trypsine (0,05 %) et à l'EDTA (0,02 %) et centrifugées. Le surnageant a été récupéré et précipité à l'acide trichloroacétique (0,2 N, v/v) puis centrifugé à nouveau. Le surnageant a été ensuite récupéré et lyophylisé. Les lyophylisats ont été repris avec de l'eau et analysés en HPLC (Colonne : Nucléosyl C8; Eluant : Solvant A (acétate de sodium 8,2 g; octylsulfonate de sodium 200 mg; acide citrique 4,2 g; EDTA 50 mg; eau q.s. pour 1 litre) 95 % et Solvant B (méthanol) 5 %) en utilisant un détecteur à 260 nm. La quantité de SAMe a été déterminée d'après une gamme étalon traitée dans les mêmes conditions expérimentales.

In the case of `C[N+](C)(C)CC(=O)[O-]` [bétaïne, (CH₃)₃N⁺-CH₂-COO⁻], the “Concentration de SAMe” value (Concentration de bétaïne 1 (10⁻⁵ M)) is reported as 0,62 nMoles/10⁷ cellules, the “Concentration de SAMe” value (Concentration de bétaïne 5 (10⁻⁵ M)) is reported as 0,94 nMoles/10⁷ cellules and the “Concentration de SAMe” value (Concentration de bétaïne 10 (10⁻⁵ M)) is reported as 1,72 nMoles/10⁷ cellules. The “Concentration de SAMe” value (Concentration de bétaïne 50 (10⁻⁵ M)) was 1,90 nMoles/10⁷ cellules and the “quantité d'adémétionine des fibroblastes de peau humaine” value (in vitro, even at very low concentrations) was “agit significativement”.
